Data on six molecules can be found in patent US5800991A, “Nucleotide or nucleoside photoaffinity compound modified antibodies, methods for their manufacture and use thereof as diagnostics and therapeutics” (University of Kentucky Research Foundation, priority 1996, dated 1998).

The subject of assay [1] is 8019 antibody. The assay can be described thus: Inhibition by ATP of [γ^32 P]8-N3 ATP photolabeling of 8019 antibody. Format: binding. Particulars: 8019, 200 μM [γ^32 P]8-N3 ATP, in words. The protocol: (§1) Antibodies (3 μg) were incubated with 200 μM [γ^32 P]8-N3 ATP (5-30 mCi/μmole) in a final volume of 30 μL for 1 minute and photolyzed with a hand-held UV lamp at 254 nm for 1 min. The reactions were quenched with protein solubilizing mixture (10% SDS, 3.6M urea, 162 mM DTT, Pyronin Y and 20 mM Tris, pH 8.0) and analyzed by 6-14% gradient SDS-PAGE. The gels were stained with Coomassie Brilliant Blue, destained, and dried using a slab gel drier. ^32 P incorporation was detected by autoradiography and quantified by either scanning on an optical Image and Acquisition Analysis (Ambis, Inc.) or by cutting the appropriate band from the gel counting the radioactivity by liquid scintillation counting.
(§2) Antibody S1C5 (Maloney et al, Hybridoma, 4:191-209 (1985)), and 8019 (Koprowsky et al, Somat. Cell. Genet., 5:957-961 (1979)) each (3 μg) were incubated with increasing concentrations of [γ^32 P]8-N3 ATP for 1 min at 4° C. and photolyzed and analyzed as described above. Protection of photolabeling of S1C5 and 8019 was performed by incubating […] of antibodies with increasing concentrations of ATP for 2 min followed by incubation with 200 μM [γ^32 P]8-N3 ATP for 1 min and photolyzed and analyzed as described above. […]

The test system of assay [2] is SIC5 antibody. The assay can be described thus: Inhibition by ATP of [γ^32 P]-8-N3 ATP photoincorporation into SIC5 (S1C5) antibody. Format: binding, murine. How it is done: The SIC5 antibody was again labeled, but in this example labeling was performed in the presence of increasing amounts of free ATP. Specifically,3 μg of the SIC5 antibody was photolyzed in the presence of 200 μm [γ^32 P]-8-N3 ATP using concentrations of ATP ranging from 0 to 700 μm. The labeled protein was again separated by SDS-PAGE; and radioactivity determined by liquid scintillation counting.
as §1
(§3) Antibody S1C5 (Maloney et al, Hybridoma, 4:191-209 (1985)), and 8019 (Koprowsky et al, Somat. Cell. Genet., 5:957-961 (1979)) each (3 μg) were incubated with increasing concentrations of [γ^32 P]8-N3 ATP for 1 min at 4° C. and photolyzed and analyzed as described above. Protection of photolabeling of S1C5 and 8019 was performed by incubating […] of antibodies with increasing concentrations of ATP for 2 min followed by incubation with 200 μM [γ^32 P]8-N3 ATP for 1 min and photolyzed and analyzed as described above. Protection experiments using amino acids were performed by incubating 3 μg of S1C5 antibody with increasing concentrations of amino acids for 2 min, followed by incubation with 200 μM [γ^32 P]8-N3 ATP for 1 min. Photolysis and analysis were performed as described.

In a further assay the test system is antibody affinity site. The assay can be described thus: Protection experiments with nucleotides and nucleosides against [γ^32 P]8-N3 ATP photolabeling. Type of assay: binding. The note with it: data not shown. How it is done: as §1, §2
The subject of assay [3] is S1C5 antibody. The experiment in a line: Quantitative immuno-precipitation of [γ^32 P]8-N3 ATP labeled S1C5 (stoichiometry). Type of assay: binding, murine. Particulars: triplicate experiments. An excerpt: Amino acid sequence of S1C5 and 8019 were deduced from the cloned and sequenced V genes (FIG. 12c). The identified peptides from photoaffinity labeling corresponded to sequences located in the variable Ig domain. The peptides eluted first (T1) from each antibody are derived from the CDR1 domain of the variable light chain extending into FR2. The second eluted peptides (T2) are from the CDR3-FR4 region of the variable heavy chain domain. It is striking that both peptides included invariant aromatic residues, Trp H103 in the VH domain and the highly conserved Tyr L36 within the VL domain.

Assay [4] concerns SIC5 antibody. The assay can be described thus: Photolabeling saturation of SIC5 (S1C5) antibody with [γ^32 P]-8-N3 ATP. Format: binding, murine. The protocol: In particular, 3 μg of SIC5 antibody in […] of photolysis buffer was photolyzed with increasing concentrations of [γ^32 P]-8-N3 ATP and then separated by SDS-PAGE. ^32 P incorporation was detected by autoradiography and quantified by scanning on Optical Imaging Acquisition Analysis (Ambis, Inc.). Photoincorporation was quantitatively confirmed by cutting the appropriate band and determining radioactivity by liquid scintillation counting. […] It can further be seen that there is a defined saturating concentration of probe at about 200 μm for both chains. This saturation plateau provides strong evidence that there exists a unique and limited number of affinity sites of the antibody which are bound by the [γ^32 P]-8-N3 ATP compound.
as §1, §3

In assay [5] the test system is 8019 antibody. The experiment in a line: Photolabeling saturation of 8019 antibody with [γ^32 P]8-N3 ATP. The note with it: 8019, Example 10. Type of assay: binding. The protocol: as §1, §2
In assay [6] the test system is S1C5 antibody. The assay can be described thus: Protection of S1C5 photolabeling by amino acids. Format: binding, murine. The note with it: 200 μM [γ^32 P]8-N3 ATP. How it is done:
as §1, §2

In assay [7] the test system is CEA antigen, LS174T tumor cells. The assay can be described thus: Competition of γ^32 P-labeled 8019 binding to its cellular target by unlabeled antibody. Format: cell-based. The note with it: data not shown. How it is done:
(§4) To determine whether the modification of this site affects antigen recognition the binding of photolabeled S1C5 (IgG2a, κ) and 8019 (IgG1, κ) to their respective antigens was tested, S1C5 is specific for a murine B-cell tumor idiotype 38C13 (13) and 8019 recognizes the CEA antigen (Koprowsky et al, Somat. Cell. Genet., 5:957-961 (1979)), expressed by the LS17T4 tumor cell line. […] Also, these same antibodies were photomodified with biotinylated 8-N3 adenosine and used in FACS. […] A comparison of the photoaffinity biotinylated antibodies with conventionally biotinylated antibodies in FACS produced nearly identical staining (manuscript submitted).

Another assay has as its system LS174T tumor cells. The assay can be described thus: FACS of biotinylated 8-azidoadenosine labeled 8019. Format: cell-based. Particulars: biotinylated 8-N3 adenosine modified antibody. How it is done: (§5) Tumor cells (38C13 and LS174T, 1×10^6) were incubated with biotinylated 8-azidoadenosine labeled antibody S1C5 or 8019 (manuscript submitted) for 60 min. on ice. After washing with 5% FCS/PBS, Neutralite Avidin-FITC (Southern Biotechnology Associates, Inc.) was added and incubated for 30 min., fixed and subjected to flow cytometry. FACS data were generated front a minimum of 9900 cells per sample.
as §4

Assay [8] has as its system murine B-cell tumor idiotype 38C13. The experiment in a line: Competition of γ^32 P-labeled S1C5 binding to its cellular target by unlabeled antibody. Particulars: 38C13, data not shown. Type of assay: cell-based. How it is done: as §4
A further assay relates to 38C13 tumor cells. The experiment in a line: FACS of biotinylated 8-azidoadenosine labeled S1C5. Type of assay: cell-based, murine. Particulars: biotinylated 8-N3 adenosine modified antibody. How it is done: as §5, §4

Entries after “also recorded” stand apart in the source; their conditions may differ. Where two headings read alike, the source gives them in different places.

Take `Nc1ncnc2c1ncn2[C@@H]1O[C@H](COP(=O)(O)OP(=O)(O)OP(=O)(O)O)[C@@H](O)[C@H]1O` [ATP]: the “protection against photolabeling by ATP” value was “Photolabeling could be prevented; also recorded: photolabeling is inhibited by ATP” in the assay on 8019 antibody [1] and “Photolabeling could be prevented; also recorded: photolabeling is inhibited by ATP” in the assay on SIC5 antibody [2] (S1C5, 200 μM [γ^32 P]8-N3 ATP, in words). The IC50 in the assay on SIC5 antibody [2] (200 μm [γ^32 P]-8-N3 ATP, ATP 0 to 700 μm, Example 2, read-out: ATP concentration for 50% inhibition of labeling) is approximately 350 µM; with SIC5 antibody [2] (ATP vs [γ^32 P]-8-N3 ATP, FIG. 2 legend, read-out: 50% inhibition of photoincorporation) it was approximately 350 µM.

As for `[N-]=[N+]=Nc1nc2c(N)ncnc2n1[C@@H]1O[C@H](CO)[C@@H](O)[C@H]1O` [8-azidoadenosine], in the assay on antibody affinity site, the “binding relative to 8-N3 ATP” value is “tighter binding than 8-N3 ATP”.

As to `[N-]=[N+]=Nc1nc2c(N)ncnc2n1[C@@H]1O[C@H](COP(=O)(O)OP(=O)(O)O[32P](=O)(O)O)[C@@H](O)[C@H]1O` [[γ^32 P]-8-N3 ATP], in the assay with S1C5 antibody [3], the “average number of molecules of 8-N3 ATP/Ig molecule” value is recorded as 1.9±0.2 molecules of 8-N3 ATP/Ig molecule. Also, the saturation of photolabeling in the assay on SIC5 antibody [4] (S1C5, Example 10) was 150 to 175 µM; in the assay with 8019 antibody [5], “about 50 μM”. The Kd at SIC5 antibody [4] (S1C5, Example 10, read-out: apparent Kd) is 75 µM; at 8019 antibody [5] (read-out: apparent Kd) it was 25 µM. Further, the “saturating concentration of probe” value with SIC5 antibody [4] ([γ^32 P]-8-N3 ATP, both heavy and light chains, Example 1) is given as “about 200 μm”. For the same molecule, in the assay with SIC5 antibody [4] (in words, Example 1), the “photoincorporation into heavy and light chains” value is “covalently attaching to both antibody heavy and light chains; also recorded: covalently attached to both heavy and light chains”.

Turning to `N[C@@H](Cc1c[nH]c2ccccc12)C(=O)O` [tryptophan], in the assay on S1C5 antibody [6], the “protection against photolabeling by amino acids” value was “best protection”.

B1: 8019: IgG1, κ antibody; recognizes the CEA antigen expressed by the LS17T4 tumor cell line (protein)
chain: DIVLTQSPASLSASVGETVTITCRASENIYSYLLWYQQKQGKSPQLLVYNAKTLAEGVPSRFSGSGSGTQFSLKINSLQPEDFGSYFCQHHFGTPWTFGGGTSLEIKRAEVNLEESGGGLVQPGGSMKLSCAASGFTESDAWMDWVRQSPEKGLEWVAEIRTKVNNHATYYAESVKGRFTISRDDSKSNVYLQMNSLRVEDTGIYYCTMAYYEAYWGQGTLVTSAAK
modifications: photoaffinity label in the variable domains as tested: biotinylated 8-azidoadenosine (FACS) or [gamma-32P]8-N3ATP (cell binding competition); labelled residue not fixed
notes: IgG1, κ antibody; recognizes the CEA antigen expressed by the LS17T4 tumor cell line
As for B1, the “inhibition of γ^32 P-labeled antibody binding by unlabeled antibody” value in assay [7] is “inhibited on an apparent 1:1 ratio by unlabeled antibodies”. For the same molecule, the “binding to tumor cell targets by flow cytometry” value in the assay with LS174T tumor cells is recorded as “recognized their specific tumor cell targets”.

B2: S1C5: anti-B cell lymphoma idiotype antibody; specific for a murine B-cell tumor idiotype 38C13 (protein)
chain: QIVLTQSPAINSASLGERVTMTCTASSSVSSSYFHWYQQKQGSSPKLWIYTTSNLASGVPARFSGSGSGTSYSLTISSMEAEDAATYYCHQYHRSPLTFGAGTKLELKRAQVQLQQSDAILVKPGASVKISCKASGYTFTDHVIHWVKQRPEQLGEWIGFISPGNGDIRYNEKFKDKATADKSSSTAYMQLNSLTSEDSAVYFCKRSFYYYDDNYGDYWGQGTTLTVSSAK
modifications: photoaffinity label in the variable domains as tested: biotinylated 8-azidoadenosine (FACS) or [gamma-32P]8-N3ATP (cell binding competition); labelled residue not fixed
notes: anti-B cell lymphoma idiotype antibody; specific for a murine B-cell tumor idiotype 38C13
Consider B2, for which, in assay [8], the “inhibition of γ^32 P-labeled antibody binding by unlabeled antibody” value is listed as “inhibited on an apparent 1:1 ratio by unlabeled antibodies”. In addition, the “binding to tumor cell targets by flow cytometry” value with 38C13 tumor cells is listed as “recognized their specific tumor cell targets”.
